Test results published in patent US7622487B2, “Piperidine derivative, process for producing the same, and use” (Takeda Pharmaceutical Company Limited, priority 2002, dated 2009).
Counter-ions that a name gives are not always drawn. Like-named read-outs stand apart in the source and are kept apart here.

Experiments:
[1] = biological target: T1, substance P receptor from human lymphoblast cells (IM-9) (Homo sapiens, UniProt P25103); assay: Radioligand receptor binding inhibitory activity (125I-BHSP binding, receptor from human lymphoblast cells (IM-9))
T1 construct: The receptor was prepared from human lymphoblast cells (IM-9); endogenous in cells; host or cells: IM-9 human lymphoblast cells (crude membrane fraction, 40,000xG pellet)
Experimental: Radioligand receptor binding inhibitory activity (Binding inhibitory activity using receptor from human lymphoblast cells (IM-9))
The method of M. A. Cascieri et al., “Molecular Pharmacology 42, p. […] The receptor was prepared from human lymphoblast cells (IM-9). IM-9 cells (2×10^5 cells/ml) were inoculated and incubated for 3 days (one liter), which was then subjected to centrifuge for 5 minutes at 500×G to obtain cell pellets. […] The residue was twice washed with 30 ml of the above-mentioned buffer, which was then preserved frozen (−80° C.) as a specimen of the receptor.
The specimen was suspended in a reaction buffer (50 mM Tri-HCl buffer (pH 7.4), 0.02% bovine serum albumin, 1 mM phenylmethylsulfonyl fluoride, 2 μg/ml chymostatin, 40 μg/ml bacitracin and 3 mM manganese chloride) to have protein in the concentration of 0.5 mg/ml of protein and 100 μl portion of the suspension was used in the reaction. […] The amount of nonspecific binding was determined by adding substance P at a final concentration of 2×10^−6 M.
After the reaction, using a cell harvester (290 PHD, Cambridge Technology, Inc, U.S.A.), rapid filtration was carried out through a glass filter (GF/B, Whatman, U.S.A.) to stop the reaction. After washing three times with 250 μl of 50 mM Tris-HCl buffer (pH 7.4) containing 0.02% bovine serum albumin, the radioactivity remaining on the filter was determined with a gamma counter. Before use, the filter was immersed in 0.1% polyethyleneimine for 24 hours and air-dried.

[2] = 125I-BHSP binding, receptor from human lymphoblast cells (IM-9), 25° C., 30 minutes, read-out: IC50 Value

T1 sequence (P25103 whole entry): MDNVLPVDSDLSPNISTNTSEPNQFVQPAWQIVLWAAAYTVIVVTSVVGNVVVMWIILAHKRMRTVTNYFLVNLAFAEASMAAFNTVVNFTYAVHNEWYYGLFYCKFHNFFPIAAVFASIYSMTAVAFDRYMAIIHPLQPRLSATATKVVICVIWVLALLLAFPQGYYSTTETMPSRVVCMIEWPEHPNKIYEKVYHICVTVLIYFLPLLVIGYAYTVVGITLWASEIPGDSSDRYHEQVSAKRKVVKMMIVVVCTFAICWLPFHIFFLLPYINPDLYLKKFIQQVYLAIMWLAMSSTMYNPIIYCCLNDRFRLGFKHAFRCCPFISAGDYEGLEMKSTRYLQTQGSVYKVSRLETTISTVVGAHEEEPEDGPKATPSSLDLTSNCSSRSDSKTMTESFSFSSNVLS

Structure (SMILES): CCNC(=O)N1CCC(NCc2cc(OC(F)(F)F)ccc2OC)C(c2ccccc2)C1 (single isomer, unassigned; (+)) [Example 613, (+)-cis-N-Ethyl-4-[[2-methoxy-5-(trifluoromethoxy)benzyl]amino]-3-phenyl-1-piperidinecarboxamide]
- IC50 [1, 2]: 0.07 nM

Structure (SMILES): COCC(=O)N1CC[C@H](NCc2cc(-n3nnnc3C(F)(F)F)ccc2OC)[C@H](c2ccccc2)C1 (single isomer, unassigned) [Example 78, (+)-cis-1-(Methoxyacetyl)-N-[2-methoxy-5-[5-(trifluoromethyl)-1H-tetrazol-1-yl]benzyl]-3-phenyl-4-piperidineamine hydrochloride]
- IC50 [1, 2]: 0.06 nM

Structure (SMILES): COc1ccc(-n2nnnc2C(F)(F)F)cc1CNC1CCN(C(=O)CN2C(=O)CCC2=O)CC1c1ccccc1 (racemic) [Example 764]
- IC50 [1, 2]: 0.042 nM

Structure (SMILES): CNC(=O)N1CC[C@H](NCc2cc(-n3nnnc3C(F)(F)F)ccc2OC)[C@H](c2ccccc2)C1 (single isomer, unassigned) [Example 72, (+)-cis-4-[[2-Methoxy-5-[5-(trifluoromethyl)-1H-tetrazol-1-yl]benzyl]amino]-N-methyl-3-phenyl-1-piperidinecarboxamide hydrochloride]
- IC50 [1, 2]: 0.032 nM

Structure (SMILES): COc1ccc(-n2nnnc2C(F)(F)F)cc1CNC1CCN(C(=O)CO)CC1c1ccccc1 (racemic) [Example 760]
- IC50 [1, 2]: 0.085 nM

Structure (SMILES): CNC(=O)N1CC[C@H](OCc2cc(C(F)(F)F)cc(C(F)(F)F)c2)[C@H](Cc2ccccc2)C1 (relative stereo) [Example 405, cis-3-Benzyl-4-[[3,5-bis(trifluoromethyl)benzyl]oxy]-N-methyl-1-piperidinecarboxamide]
- melting point: 160 to 161 °C

Structure (SMILES): COc1ccc(-n2nnnc2C(F)(F)F)cc1CNC1CCN(C(=O)CS(C)(=O)=O)CC1c1ccccc1 (racemic) [Example 763]
- IC50 [1, 2]: 0.08 nM

Structure (SMILES): CCNC(=O)N1CC[C@H](NCc2cc(-n3nnnc3C(F)(F)F)ccc2OC)[C@H](c2ccccc2)C1 (single isomer, unassigned) [Example 75, (+)-cis-N-Ethyl-4-[[2-methoxy-5-[5-(trifluoromethyl)-1H-tetrazol-1-yl]benzyl]amino]-3-phenyl-1-piperidinecarboxamide hydrochloride]
- IC50 [1, 2]: 0.025 nM

Structure (SMILES): CNC(=O)N1CCC(NCc2cc(-n3nnnc3C(F)(F)F)cc3c2OCC3)C(c2ccccc2)C1 (racemic) [Example 722]
- IC50 [1, 2]: 0.11 nM

Structure (SMILES): COc1ccc(-n2nnnc2C(F)(F)F)cc1CNC1CCN(C(=O)C2CCN(S(C)(=O)=O)CC2)CC1c1ccccc1 (racemic) [Example 755]
- IC50 [1, 2]: 0.096 nM

Structure (SMILES): COc1ccc(-n2nnnc2C(F)(F)F)cc1CNC1CCN(C(=O)CNC(C)=O)CC1c1ccccc1 (racemic) [Example 753]
- IC50 [1]: 0.073 nM

Structure (SMILES): COc1ccc(-n2nnnc2C(F)(F)F)cc1CNC1CCN(C(=O)C2CCN(C(C)=O)CC2)CC1c1ccccc1 (single isomer, unassigned; (-)) [Example 81, (−)-cis-1-[(1-Acetyl-4-piperidinyl)carbonyl]-N-[2-methoxy-5-[5-(trifluoroinethyl)-1H-tetrazol-1-yl]benzyl]-3-phenyl-4-piperidineamine hydrochloride]
- IC50 [1, 2]: 0.058 nM

Structure (SMILES): COc1ccc(-n2nnnc2C(F)(F)F)cc1CNC1CCN(C(C)=O)CC1c1ccccc1 (racemic) [Example 762]
- IC50 [1]: 0.049 nM

Structure (SMILES): CNC(=O)N1CCC(OCc2cc(C(F)(F)F)cc(C(F)(F)F)c2)C(c2ccccc2)C1 (single isomer, unassigned; (+)) [Example 413, (+)-cis-4-[[3,5-Bis(trifluoromethyl)benzyl]oxy]-N-methyl-3-phenyl-1-piperidinecarboxamide]
- IC50 [1, 2]: 0.23 nM

Structure (SMILES): CC(=O)N1CCC(C(=O)N2CC[C@H](NCc3cc(-n4nnnc4C(F)(F)F)cc4c3OCC4)[C@H](c3ccccc3)C2)CC1 (single isomer, unassigned) [Example 88, (−)-cis-1-[(1-Acetyl-4-piperidinyl)carbonyl]-3-phenyl-N-[[5-[5-(trifluoromethyl)-1H-tetrazol-1-yl]-2,3-dihydro-1-benzofuran-7-yl]methyl]-4-piperidineamine hydrochloride]
- IC50 [1, 2]: 0.06 nM

Structure (SMILES): CCNC(=O)N1CCC(NCc2cc(-n3nnnc3C(F)(F)F)cc3c2OCC3)C(c2ccccc2)C1 (single isomer, unassigned; (-)) [Example 84, (−)-cis-N-Ethyl-3-phenyl-4-[[[5-[5-(trifluoromethyl)-1-H-tetrazol-1-yl]-2,3-dihydro-1-benzofuran-7-yl]methyl]amino]-1-piperidinecarboxamide hydrochloride]
- IC50 [1, 2]: 0.051 nM

Structure (SMILES): COc1ccc(-n2nnnc2C(F)(F)F)cc1CNC1CCN(C(=O)Cn2cnnn2)CC1c1ccccc1 (racemic) [Example 757]
- IC50 [1, 2]: 0.067 nM

Structure (SMILES): CC(=O)N1CCC(C(=O)N2CC[C@H](OCc3cc(C(F)(F)F)cc(C(F)(F)F)c3)[C@H](c3ccccc3)C2)CC1 [Example 70, (+)-(3R,4S)-1-[(1-Acetyl-4-piperidinyl)carbonyl]-4-[[3,5-bis(trifluoromethyl)benzyl]oxy]-3-phenylpiperidine]
- IC50 [1, 2]: 0.15 nM

Structure (SMILES): COc1ccc(-n2nnnc2C(F)(F)F)cc1CNC1CCN(C(=O)CCNC(C)=O)CC1c1ccccc1 (racemic) [Example 761]
- IC50 [1]: 0.054 nM
